Columns and labels:
Assay type in all cases: cell-based
Bacillus Subtilis spores = experiment: Sterilization test, Bacillus subtilis spores in cups with or without fixed heart valves, 40° C. (Example 2); set-up: key: (+) Indicates growth; (−) indicates no growth or complete kill; settings: 20 mM EDC+1 mM Sulfo-NHS, 20% isopropyl alcohol
Procedure: Porcine aortic roots are fixed by cross-linking according to the method described in U.S. Pat. No. 5,447,536. After fixation, the valves are stored in 10 mM HEPES, 0.85% NaCl, 20% isopropyl alcohol, pH 7.4, at 4° C. The sterility tests described in the following examples are in most cases conducted in the presence of bioprosthetic heart valve tissue; when such tissue is not present, the solutions are simply filtered through a 0.45 micron filter attached to a funnel (filter funnel). The filters are then rinsed with peptone water to eliminate residual chemicals on the membrane that may prevent growth of the organisms tested. Such membrane filters are then incubated on TSA plates at about 32° to 33° C., e.g. 32.5° C. When an aortic valve is inoculated with microorganisms for test purposes and then submitted to sterilization, the solution is filtered as described above. The aortic valve tissue is then washed for 20 minutes in a reciprocating shaker in the presence of peptone water containing Tween 80 in order to extract all indigenous spores or microorganisms from the tissue. This solution is filtered and then incubated as described above. All microbiological testing is performed in a biological laminar flow hood to prevent contamination. The shrinkage temperature and the proteolytic (collagenase and protease) degradation tests are conducted as previously described in the '536 patent. Resistance to calcification is assessed by subdermal implantation of sterilized leaflets and aortic wall coupons in young rats, as also described in the '536 U.S. patent.
A sterilization process similar to Example 1 is carried out using Bacillus Subtilis spores (˜10^6) inoculated in sterile cups some of which contain cross-linked heart valves that had been fixed by a process according to U.S. Pat. No. 5,447,536. A 10 mM HEPES, 0.85% NaCl, pH 6.5 solution containing 20 mM EDC and 1 mM Sulfo-NHS in the presence of 20% isopropyl alcohol was added for various periods of time (treatment duration). The cups and the heart valves were maintained at 40° C. for the term of the treatment. The solutions were then filtered and the filters incubated for up to 7 days (incubation duration) at about 32-33° C. using Trypticase Soy Agar (TSA) plates. All inoculations were done in duplicate.

[1] = system: Bacillus subtilis ATCC 9372 spores; experiment: Sterilization test with or without coupling enhancer (Example 3); settings: 20 mM EDC, 20% isopropyl alcohol, 72 hours, about 40° C.
Procedure: In the experiments described above, a coupling enhancer (Sulfo-NHS) was added to EDC during the sterilization process. The following experiment was designed to test the efficacy of EDC in the presence or absence of an enhancer. A sterilization test process was carried out employing about 5.7 to 6.6×10^5 Bacillus subtilis ATCC 9372 spores, inoculating them in sterile cups for 10 minutes. A solution of 10 mM HEPES, 0.85% NaCl, 20% isopropyl alcohol, pH 6.5 was then added to each of the cups, which solution contained 20 mM EDC and either 1 mM Sulfo-NHS or 1 mM NHS or no enhancer. Incubation was carried out for 72 hours (treatment duration) with the cups at about 40° C., and the solutions from the cups were then filtered. The filters were rinsed with a 0.1% peptone water solution to eliminate any residual EDC and/or enhancer and were then incubated on Trypticase Soy Agar (TSA) plates.

[2] = system: Bacillus subtilis (niger) spores; experiment: Sterilization without isopropyl alcohol and sulfo-NHS, cups with or without porcine valve tissue (Example 4B); settings: 40° C., no isopropyl alcohol or sulfo-NHS
Procedure: An experiment similar to that of Example 2 is carried out using EDC as a coupling agent in the absence of isopropyl alcohol and sulfo-NHS. Bacillus subtilis (niger) spores at levels of about 10^6 are inoculated in sterile cups, some of which contain cross-linked porcine aortic valve tissue, for approximately 10 minutes. Solutions (50 ml) of 25, 50 and 70 mM EDC in 10 mM TRIS, 0.85% NaCl, pH 6.5, are prewarmed to 40° C., respectively added to the cups, and incubated at 40° C. for 1 to 3 days. The solutions are then diluted and filtered in order to collect microorganisms. The valve tissue is washed for 20 minutes in a reciprocating shaker in the presence of peptone water containing polyethylenesorbitan monooleate (Tween 80) in order to extract all spores of microorganisms from the tissue; the peptone water solution is added to the corresponding filter. Next, the filters are rinsed with a 0.1% peptone water solution to eliminate any residual EDC and incubated on TSA plates for 14 days. The plates are examined every day for growth, counting the colony forming units (CFUs).

[3] = system: Bacillus pumilus ATCC 27142 spores; experiment: Sterilization in cups at about 38° C. (Example 6); settings: 25 mM EDC, 20% isopropanol
Procedure: (§1) In view of the foregoing verification, it was decided to test the effectiveness of the sterilization process against other bacteria using sterile cups. Added to each of the cups is 20 ml of 10 mM HEPES, 0.85%, Nacl, 20% isopropanol, pH 6.5, containing 25 mM EDC without any coupling enhancer, before the cups are placed in a incubator at about 38° C. When the solution temperature reached about 38° C., approximately 10^5-10^6 organisms were inoculated into the solution. The tests were carried out in triplicate. The following four isolated were tested in the form of sporous suspensions: Clostridium sporogenes ATCC 3584, Bacillus pumilus ATCC 27142, Chaetonium globosom ATCC 6205, and Microacus cinereus ATCC 16594. The following three isolates were tested as vegetative cells: Mycobacterium chelonae ATCC 35752, Methylbacterium extorquens ATCC 43645 and Trichosporon aquatile ATCC 22310. The inoculated systems were allowed to incubate for 1 hour, for 5 hours or for 24 hours, and the solutions were then filtered through a 0.45 micron filter. After rinsing, the filter was placed on a TSA plate as described in Example 1. Negative and positive controls indicate that the tests were valid. The results are set forth in Table D which follows wherein the number of CFUs in the inoculum is expressed as its log to the base 10, e.g. 3.4×10^5=5.5: […]

[4] = system: Clostridium sporogenes ATCC 3584 spores; experiment: Sterilization in cups at about 38° C. (Example 6); settings: 25 mM EDC, 20% isopropanol
Procedure: as §1

[5] = system: Mycobacterium chelonae ATCC 35752 vegetative cells; experiment: Sterilization in cups at about 38° C. (Example 6); settings: 25 mM EDC, 20% isopropanol, 1 Hour, inoculum Log 10 5.15
Procedure: as §1

## CCN=C=NCCCN(C)C.Cl [EDC, 1-ethyl-3(3-dimethylaminopropyl)carbodiimide hydrochloride]
Bacillus Subtilis spores; with valves, treatment 48 hours, incubation 1 Day
  growth on TSA plates: −
Bacillus Subtilis spores; with valves, treatment 48 hours, incubation 7 Days
  growth on TSA plates: −
Bacillus Subtilis spores; with valves, treatment 72 hours, incubation 1 Day
  growth on TSA plates: −
Bacillus Subtilis spores; with valves, treatment 72 hours, incubation 7 Days
  growth on TSA plates: −
Bacillus Subtilis spores; without valves, treatment 24 hours, incubation 1 Day
  growth on TSA plates: −
Bacillus Subtilis spores; without valves, treatment 24 hours, incubation 7 Days
  growth on TSA plates: −
Bacillus Subtilis spores; without valves, treatment 48 hours, incubation 1 Day
  growth on TSA plates: −
Bacillus Subtilis spores; without valves, treatment 48 hours, incubation 7 Days
  growth on TSA plates: −
Bacillus Subtilis spores; without valves, treatment 72 hours, incubation 1 Day
  growth on TSA plates: −
Bacillus Subtilis spores; without valves, treatment 72 hours, incubation 7 Days
  growth on TSA plates: −
[1]; enhancer 1 mM NHS
  NUMBER OF COLONY FORMING UNITS (SURVIVORS): 0
[1]; enhancer 1 mM sulfo-NHS
  NUMBER OF COLONY FORMING UNITS (SURVIVORS): 0
[1]; no enhancer
  NUMBER OF COLONY FORMING UNITS (SURVIVORS): 0
[2]; 25 mM EDC
  time within which effective sterilization (inactivation of 1×10^6 spores) occurs: ≤ 24 hours
[2]; 50 mM EDC
  time within which effective sterilization (inactivation of 1×10^6 spores) occurs: ≤ 24 hours
[2]; 70 mM EDC
  time within which effective sterilization (inactivation of 1×10^6 spores) occurs: ≤ 24 hours
[3]; 1 Hour, inoculum Log 10 5.45
  Log REDUCTION: 3.68
[3]; 5 Hours, inoculum Log 10 5.45
  Log REDUCTION: 4.41
[3]; 24 Hours, inoculum Log 10 5.22
  Log REDUCTION: 5.22
[4]; 1 Hour, inoculum Log 10 4.6
  Log REDUCTION: 2.12
[4]; 5 Hours, inoculum Log 10 4.6
  Log REDUCTION: 3.02
[4]; 24 Hours, inoculum Log 10 3.65
  Log REDUCTION: 3.65
[5]
  Log REDUCTION: 5.15
